The source of these data is paper PMC10647059, “Molecular Determinants of EphA2 and EphB2 Antagonism Enable the Design of Ligands with Improved Selectivity” (Journal of Chemical Information and Modeling, 2023).

The subject of one series is U251 GBM cell line. Nature of the series: MTT cell viability/proliferation assay on U251 glioblastoma cell line. It is filed as cell-based. To be noted: 30 μM, continuous exposure, time course vs control DMSO 0.3%. On the procedure: Figure 12 reports the time course of cell growth compared to the control (DMSO 0.3% solution) in the presence of a compound concentration of 30 μM. […] Although additional investigations will be required to confirm this promising behavior, it could be speculated that the higher antiproliferative activity of UniPR1449 compared to that of […], and the reference antagonist UniPR1331, is due to its peculiar pharmacological profile at the level of Eph receptors.
Data are the means of at least three independent experiments ± standard deviation.
Figure S10. Cell viability assay performed using a MTT assay on U251 glioblastoma cell line treated with the approved drug temozolomide and the reference compound UniPR1331.

For a further series, the target named is T1, EphB2 (Mus musculus, UniProt P54763).
T1 sequence (P54763 19-543): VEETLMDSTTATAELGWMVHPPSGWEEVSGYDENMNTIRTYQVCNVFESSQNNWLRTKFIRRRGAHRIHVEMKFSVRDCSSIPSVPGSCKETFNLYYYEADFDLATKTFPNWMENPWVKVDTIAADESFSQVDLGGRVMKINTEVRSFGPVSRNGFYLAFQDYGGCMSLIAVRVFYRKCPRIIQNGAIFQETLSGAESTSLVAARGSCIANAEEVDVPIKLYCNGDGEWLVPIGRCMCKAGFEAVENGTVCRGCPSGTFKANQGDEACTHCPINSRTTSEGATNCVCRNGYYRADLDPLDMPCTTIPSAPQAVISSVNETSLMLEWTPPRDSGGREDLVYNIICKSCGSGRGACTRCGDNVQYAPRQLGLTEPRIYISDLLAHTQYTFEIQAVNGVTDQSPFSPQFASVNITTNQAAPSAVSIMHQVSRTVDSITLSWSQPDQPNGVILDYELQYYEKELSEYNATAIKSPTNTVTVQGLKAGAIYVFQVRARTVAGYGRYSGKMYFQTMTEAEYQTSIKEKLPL
Nature of the series: ELISA binding assay: displacement and saturation of biotinylated ephrin-B1-Fc on immobilized EphB2. To be noted: data not shown.

A short description of another series: physchem. To be noted: pH 7.4.
A short description of series [1]: Rat liver microsome stability assay. It is filed as in vitro ADME. Particulars: liver microsomes, pH 7.4, 60 min at 37 °C, NADPH-generating system, read-out: compound recovery at 60 min in rat liver microsomes. On the procedure:
Experiments were performed as previously described.[59]
(In general: Microsomes from liver hold many membrane-bound enzymes, among them those of drug oxidation.)

Series [2] in a line: Rat plasma stability assay. Particulars: 60 min at 37 °C, 1 μM.
Method: Pooled plasma (400 μL) was incubated at 37 °C in the presence of 10 mM phosphate-buffered saline (PBS) pH 7.4. 5 μL of compound stock solution in DMSO (final DMSO concentration: 1%; final compound concentration: 1 μM) was added to start the rat plasma stability assay. […] At fixed time points, aliquots of 50 μL were taken, added with two volumes of CH3CN containing as internal standard the structural analogue UniPR126, centrifuged (16,000g, 5 min, 4 °C), and analyzed by HPLC-ESI-MS/MS. The responses (i.e., peak area ratios of test compound vs internal standard) were referred to the zero time-point samples (considered as 100%) to determine the percentage of remaining compound vs time.
The target of series [3] is T2, EphA2 (Mus musculus, UniProt Q03145). Nature of the series: ELISA binding assay: displacement and saturation of biotinylated ephrin-A1-Fc on immobilized EphA2-Fc.
Method: Compounds were added to the wells at proper concentrations in 0.5% DMSO and incubated at 37 °C for 1 h. Biotinylated ephrin-A1-Fc was added at 37 °C for 4 h. Data are the means of three independent experiments ± standard deviation.
(§1) The day after, wells were washed with a washing buffer (PBS 0.05% tween20, pH 7.5) and blocked with a blocking buffer solution (PBS 1% BSA) for 1 h at 37 °C. Compounds were added to the wells at a proper concentration in 0.5% DMSO and incubated at 37 °C for 1 h. […] After 4 h for displacement assays or 5 h for saturation studies, wells were washed and incubated with 100 μL/well Streptavidin-HRP (Sigma S5512) for 20 min at room temperature. Then, wells were washed again with a washing buffer and incubated at room temperature with 0.1 mg/mL tetramethylbenzidine (Sigma T2885) reconstituted in stable peroxide buffer (0,05 M citric acid +0,05 M dibasic sodium phosphate, pH 5). The reaction was quenched with 3 N HCl. Absorbance was read at 450 nm (ELISA plate reader). The IC50 and Ki values were determined using one-site competition nonlinear regression analysis with Prism software (GraphPad Software Inc.).
Series [4] deals with T2, EphA2. Nature of the series: Surface plasmon resonance, steady-state analysis on immobilized EphA2-Fc. Particulars: EphA2-Fc on CM4 sensorchip; ± standard deviation; read-out: KD (SPR, steady-state). It is filed as binding. On the procedure:
Increasing concentrations of the two compounds were injected over EphA2-Fc immobilized on the surface of a CM SPR4 sensorchip and evaluated for their interaction.
Surface plasmon resonance (SPR) measurements were performed on a BIAcore X100 instrument, using a carboxyl-methyl-dextran-coated sensorchip (CM4, GE-Healthcare).
On the technique in general: In SPR one partner is held on a chip, and binding of the other changes the refractive index at the surface.

T2 sequence (Q03145 with tags, fused parts or gaps limits assumed): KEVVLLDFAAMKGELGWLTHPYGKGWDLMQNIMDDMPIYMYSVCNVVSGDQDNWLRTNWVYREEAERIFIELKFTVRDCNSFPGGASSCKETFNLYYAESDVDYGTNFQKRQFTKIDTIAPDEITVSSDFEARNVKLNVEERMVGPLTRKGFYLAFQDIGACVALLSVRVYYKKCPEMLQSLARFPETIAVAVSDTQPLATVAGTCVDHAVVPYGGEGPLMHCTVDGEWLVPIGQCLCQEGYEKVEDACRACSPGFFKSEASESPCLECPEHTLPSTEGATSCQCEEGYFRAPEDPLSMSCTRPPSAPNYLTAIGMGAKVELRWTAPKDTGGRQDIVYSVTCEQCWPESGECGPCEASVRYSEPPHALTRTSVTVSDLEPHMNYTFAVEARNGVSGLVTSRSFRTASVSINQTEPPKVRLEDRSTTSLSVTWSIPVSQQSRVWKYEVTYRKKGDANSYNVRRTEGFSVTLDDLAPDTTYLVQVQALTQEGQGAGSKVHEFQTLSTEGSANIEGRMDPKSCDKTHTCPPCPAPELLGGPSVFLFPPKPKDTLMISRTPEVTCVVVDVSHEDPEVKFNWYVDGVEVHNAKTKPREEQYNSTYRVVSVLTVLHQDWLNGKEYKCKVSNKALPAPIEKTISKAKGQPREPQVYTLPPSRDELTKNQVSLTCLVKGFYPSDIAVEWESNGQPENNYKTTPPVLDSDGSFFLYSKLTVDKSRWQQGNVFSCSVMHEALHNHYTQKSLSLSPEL
Method for EphB2: as §1
Method for physchem: Distribution coefficients (D) were measured at physiological pH by the shake-flask method at room temperature (21.0 ± 0.5 °C), employing n-octanol/50 mM MOPS buffer pH 7.4, 0.15 M KCl ionic strength as a biphasic solvent system, after mutual saturation by overnight stirring. A weighed amount of compound was dissolved in water-saturated n-octanol, a buffer was added, and the sample was stirred for 4 h to reach partition equilibrium. Partition phases were centrifuged (9000g, 10 min, 20 °C), separated, diluted with methanol, and dosed by HPLC-ESI-MS/MS.

On to `C[C@H](CCC(=O)N[C@H](CC(=O)O)Cc1c[nH]c2ccccc12)[C@H]1CCC2C3CC=C4C[C@@H](O)CC[C@]4(C)C3CC[C@@]21C` (stereo partly drawn) [UniPR1447, N-(3β-hydroxy-Δ^5-cholen-24-oyl)-L-β-homotryptophan], for which the “effect on U251 cell growth (MTT)” value with U251 GBM cell line was “did not significantly affect U251 growth”. Further, the “reversibility of binding to EphB2” value at EphB2 was “fully reversible”. The logD at 4 h in “physchem” came out at 4.6 ± 0.1. Moreover, the remaining at 60 min, 1 μM in series [1] was 40.3%. Further, in series [2], the “stability in rat plasma” value is recorded as “stable”.
As to `CC(CCC(=O)NC(CC(=O)O)Cc1cn(S(=O)(=O)c2ccccc2)c2ccccc12)C1CCC2C3CC=C4CC(O)CCC4(C)C3CCC12C` [UniPR1449, N-(3β-hydroxy-Δ^5-cholen-24-oyl)-1-benzensulfonyl-L-β-homotryptophan], the “reversibility of binding to EphA2” value at EphA2 [3] (50 μM compound, with or without washing three times with PBS before ephrin-A1-Fc) is given as “reversible”. In addition, the Ki on EphA2 [3] (read-out: Ki for EphA2 (saturation curves of ephrin-A1-Fc, nonlinear regression)) was 2200 nM. The “effect on U251 cell growth (MTT)” value in the series on U251 GBM cell line is given as “fully blocked GBM growth”. In addition, the equilibrium dissociation constant (Kd) at EphA2 [4] was 3800 ± 2400 nM. For the same compound, in the series “physchem”, the pH-dependent lipophilicity (logD) at 4 h came out at 4.7 ± 0.11. For the same compound, the remaining at 60 min, 1 μM in series [1] came to 62.2%. Further, the “stability in rat plasma” value in series [2] is “stable”.

By logD is commonly meant lipophilicity at a set pH, counting ionised and neutral species. A high value points to a more lipophilic compound. As usually defined, the Kd is the concentration at which binding is half-saturated.
